According to patent US20180370927A1, “MICROBIOCIDAL OXADIAZOLE DERIVATIVES” (SYNGENTA PARTICIPATIONS AG, priority 2015, published 2018):

How the values were obtained:
[1] = test system: Puccinia recondita f. Sp. Tritici; test: Puccinia recondita f. sp. tritici / wheat / leaf disc preventative (brown rust); type: in vivo; conditions: foliar, 200 ppm in the applied formulation, wheat leaf segments, preventative, assessed 7 to 9 days after application, read-out: disease control compared to untreated control leaf disks
Procedure, shortened: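 Wheat cv. Kanzler leaf segments on agar sprayed with formulated compound in water, inoculated with rust spores 1 day later. Incubated at 19° C, 75% rh, 12 h light/12 h dark; percent disease control versus untreated scored 7 to 9 days after application; tested at 200 ppm.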

[2] = test system: Puccinia recondita f. Sp. Tritici; test: Puccinia recondita f. sp. tritici / wheat / leaf disc curative (brown rust); type: in vivo; conditions: foliar, 200 ppm in the applied formulation, wheat leaf segments, curative (applied 1 day after inoculation), assessed 6 to 8 days after application, read-out: disease control compared to untreated control leaf disks
Procedure, shortened: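 Curative treatment: formulated compound in water was applied 1 day post-inoculation to spore-inoculated wheat cv. Kanzler segments held on agar. Segments stayed at 19° C and 75% relative humidity (12 h photoperiod after application), and disease control relative to untreated checks was assessed 6 to 8 days later.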

[3] = test system: Glomerella lacenarium (Colletotrichum lacenarium); test: Glomerella lacenarium (Colletotrichum lacenarium) liquid culture / cucumber / preventative (anthracnose); type: cell-based; conditions: 20 ppm in the applied formulation, liquid culture in PDB, 24° C., 3 to 4 days after application, read-out: disease control (inhibition of growth, photometric) compared to untreated control
Procedure, shortened: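 At 20 ppm in the applied formulation, compounds were mixed with fungal spores in potato dextrose broth and held at 24° C. After 3–4 days, photometric growth measurement gave percent antifungal activity relative to untreated control.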

Phakopsora pachyrhizi = Phakopsora pachyrhizi / soybean / leaf disc preventative (Asian soybean rust); type: in vivo; conditions: foliar, 200 ppm in the applied formulation, soybean leaf disks, assessed 12 to 14 days after application, read-out: disease control compared to untreated control leaf disks
Method: Leaf disks or leaf segments of various plant species are cut from plants grown in a greenhouse. The cut leaf disks or segments are placed in multiwell plates (24-well format) onto water agar. The leaf disks are sprayed with a test solution before (preventative) or after (curative) inoculation. Compounds to be tested are prepared as DMSO solutions (max. 10 mg/mL) which are diluted to the appropriate concentration with 0.025% Tween20 just before spraying. The inoculated leaf disks or segments are incubated under defined conditions (temperature, relative humidity, light, etc.) according to the respective test system. A single evaluation of disease level is carried out 3 to 14 days after inoculation, depending on the pathosystem. Percent disease control relative to the untreated check leaf disks or segments is then calculated.
Example 3: Fungicidal Activity Against Phakopsora pachyrhizi/Soybean/Leaf Disc Preventative (Asian Soybean Rust)
Soybean leaf disks are placed on water agar in multiwell plates (24-well format) and sprayed with the formulated test compound diluted in water. One day after application leaf discs are inoculated by spraying a spore suspension on the lower leaf surface. After an incubation period in a climate cabinet of 24-36 hours in darkness at 20° C. and 75% relative humidity leaf disc are kept at 20° C. with 12 hours light/day and 75% relative humidity. The activity of a compound is assessed as percent disease control compared to untreated when an appropriate level of disease damage appears in untreated check leaf disks (12 to 14 days after application).
The following compounds at 200 ppm in the applied formulation give at least 80% disease control in this test when compared to untreated control leaf disks under the same conditions, which show extensive disease development.

CCCC(=O)C(=O)N(Cc1ccc(-c2noc(C(F)(F)F)n2)cc1)OC [Compound 1.3, N-methoxy-2-oxo-N-[[4-[5-(trifluoromethyl)-1,2,4-oxadiazol-3-yl]phenyl]methyl]pentanamide]
≥ 80%: pest or weed control at 200 ppm [1] | pest or weed control at 200 ppm [2] | inhibition at 20 ppm [3] | pest or weed control at 200 ppm (Phakopsora pachyrhizi)

CCCC(=O)C(=O)N(Cc1ccc(-c2noc(C(F)(F)F)n2)cc1)C1CC1 [Compound 1.4, N-cyclopropyl-2-oxo-N-[[4-[5-(trifluoromethyl)-1,2,4-oxadiazol-3-yl]phenyl]methyl]pentanamide]
≥ 80%: pest or weed control at 200 ppm [1] | pest or weed control at 200 ppm [2] | inhibition at 20 ppm [3] | pest or weed control at 200 ppm (Phakopsora pachyrhizi)

C#CCN(Cc1ccc(-c2noc(C(F)(F)F)n2)cc1)C(=O)C(=O)CCC [Compound 1.5, 2-oxo-N-prop-2-ynyl-N-[[4-[5-(trifluoromethyl)-1,2,4-oxadiazol-3-yl]phenyl]methyl]pentanamide]
≥ 80%: pest or weed control at 200 ppm [1] | pest or weed control at 200 ppm [2] | inhibition at 20 ppm [3] | pest or weed control at 200 ppm (Phakopsora pachyrhizi)

COCCN(Cc1ccc(-c2noc(C(F)(F)F)n2)cc1)C(=O)C(C)=O [Compound 1.10, N-(2-methoxyethyl)-2-oxo-N-[[4-[5-(trifluoromethyl)-1,2,4-oxadiazol-3-yl]phenyl]methyl]propanamide]
≥ 80%: pest or weed control at 200 ppm [1] | pest or weed control at 200 ppm [2] | inhibition at 20 ppm [3] | pest or weed control at 200 ppm (Phakopsora pachyrhizi)

CCC(C)N(Cc1ccc(-c2noc(C(F)(F)F)n2)cc1)C(=O)C(C)=O (stereo not shown) [Compound 1.12, 2-oxo-N-sec-butyl-N-[[4-[5-(trifluoromethyl)-1,2,4-oxadiazol-3-yl]phenyl]methyl]propanamide]
≥ 80%: pest or weed control at 200 ppm [1] | pest or weed control at 200 ppm [2] | inhibition at 20 ppm [3] | pest or weed control at 200 ppm (Phakopsora pachyrhizi)

C=CCN(Cc1ccc(-c2noc(C(F)(F)F)n2)cc1)C(=O)C(C)=O [Compound 1.16, N-allyl-2-oxo-N-[[4-[5-(trifluoromethyl)-1,2,4-oxadiazol-3-yl]phenyl]methyl]propanamide]
≥ 80%: pest or weed control at 200 ppm [2] | inhibition at 20 ppm [3] | pest or weed control at 200 ppm (Phakopsora pachyrhizi)

C=CCN(Cc1ccc(-c2noc(C(F)(F)F)n2)cc1)C(=O)C(=O)CCC [Compound 1.17, N-allyl-2-oxo-N-[[4-[5-(trifluoromethyl)-1,2,4-oxadiazol-3-yl]phenyl]methyl]pentanamide]
≥ 80%: pest or weed control at 200 ppm [1] | pest or weed control at 200 ppm [2] | inhibition at 20 ppm [3] | pest or weed control at 200 ppm (Phakopsora pachyrhizi)

CCN(Cc1ccc(-c2noc(C(F)(F)F)n2)cc1)C(=O)C(C)=O [Compound 1.18, N-ethyl-2-oxo-N-[[4-[5-(trifluoromethyl)-1,2,4-oxadiazol-3-yl]phenyl]methyl]propanamide]
≥ 80%: pest or weed control at 200 ppm [1] | pest or weed control at 200 ppm [2] | inhibition at 20 ppm [3] | pest or weed control at 200 ppm (Phakopsora pachyrhizi)

O=C(NCc1ccc(-c2noc(C(F)(F)F)n2)c(F)c1F)C(=O)c1cccs1 [Compound 1.48, N-[[2,3-difluoro-4-[5-(trifluoromethyl)-1,2,4-oxadiazol-3-yl]phenyl]methyl]-2-oxo-2-(2-thienyl)acetamide]
≥ 80%: pest or weed control at 200 ppm [1] | inhibition at 20 ppm [3] | pest or weed control at 200 ppm (Phakopsora pachyrhizi)

CON(Cc1ccc(-c2noc(C(F)(F)F)n2)cc1F)C(=O)C(=O)c1ccccc1 [Compound 1.54, N-[[2-fluoro-4-[5-(trifluoromethyl)-1,2,4-oxadiazol-3-yl]phenyl]methyl]-N-methoxy-2-oxo-2-phenyl-acetamide]
≥ 80%: pest or weed control at 200 ppm [1] | inhibition at 20 ppm [3] | pest or weed control at 200 ppm (Phakopsora pachyrhizi)

CON(Cc1ccc(-c2noc(C(F)(F)F)n2)cc1F)C(=O)C(=O)c1cccs1 [Compound 1.56, N-[[2-fluoro-4-[5-(trifluoromethyl)-1,2,4-oxadiazol-3-yl]phenyl]methyl]-N-methoxy-2-oxo-2-(2-thienyl)acetamide]
≥ 80%: pest or weed control at 200 ppm [1] | inhibition at 20 ppm [3] | pest or weed control at 200 ppm (Phakopsora pachyrhizi)

CON(Cc1ccc(-c2noc(C(F)(F)F)n2)cc1F)C(=O)C(=O)C(C)(C)C [Compound 1.57, N-[[2-fluoro-4-[5-(trifluoromethyl)-1,2,4-oxadiazol-3-yl]phenyl]methyl]-N-methoxy-3,3-dimethyl-2-oxo-butanamide]
≥ 80%: pest or weed control at 200 ppm [1] | inhibition at 20 ppm [3] | pest or weed control at 200 ppm (Phakopsora pachyrhizi)

O=C(NCc1ccc(-c2noc(C(F)(F)F)n2)cc1Cl)C(=O)c1ccccc1 [Compound 1.59, N-[[2-chloro-4-[5-(trifluoromethyl)-1,2,4-oxadiazol-3-yl]phenyl]methyl]-2-oxo-2-phenyl-acetamide]
≥ 80%: pest or weed control at 200 ppm [1] | inhibition at 20 ppm [3] | pest or weed control at 200 ppm (Phakopsora pachyrhizi)

O=C(NCc1ccc(-c2noc(C(F)(F)F)n2)cc1Cl)C(=O)c1cccs1 [Compound 1.62, N-[[2-chloro-4-[5-(trifluoromethyl)-1,2,4-oxadiazol-3-yl]phenyl]methyl]-2-oxo-2-(2-thienyl)acetamide]
≥ 80%: pest or weed control at 200 ppm [1] | inhibition at 20 ppm [3] | pest or weed control at 200 ppm (Phakopsora pachyrhizi)

CC(C)(C)C(=O)C(=O)NCc1ccc(-c2noc(C(F)(F)F)n2)cc1Cl [Compound 1.63, N-[[2-chloro-4-[5-(trifluoromethyl)-1,2,4-oxadiazol-3-yl]phenyl]methyl]-3,3-dimethyl-2-oxo-butanamide]
≥ 80%: pest or weed control at 200 ppm [1] | inhibition at 20 ppm [3] | pest or weed control at 200 ppm (Phakopsora pachyrhizi)

O=C(NCc1c(F)cc(-c2noc(C(F)(F)F)n2)cc1F)C(=O)c1ccccc1 [Compound 1.68, N-[[2,6-difluoro-4-[5-(trifluoromethyl)-1,2,4-oxadiazol-3-yl]phenyl]methyl]-2-oxo-2-phenyl-acetamide]
≥ 80%: pest or weed control at 200 ppm [1] | inhibition at 20 ppm [3] | pest or weed control at 200 ppm (Phakopsora pachyrhizi)

CON(Cc1ccc(-c2noc(C(F)(F)F)n2)cc1)C(=O)C(=O)c1cccs1 [Compound 1.73, N-methoxy-2-oxo-2-(2-thienyl)-N-[[4-[5-(trifluoromethyl)-1,2,4-oxadiazol-3-yl]phenyl]methyl]acetamide]
≥ 80%: pest or weed control at 200 ppm [1] | inhibition at 20 ppm [3] | pest or weed control at 200 ppm (Phakopsora pachyrhizi)

O=C(NCc1ccc(-c2noc(C(F)(F)F)n2)cc1Cl)C(=O)c1ccco1 [Compound 1.84, N-[[2-chloro-4-[5-(trifluoromethyl)-1,2,4-oxadiazol-3-yl]phenyl]methyl]-2-(2-furyl)-2-oxo-acetamide]
≥ 80%: pest or weed control at 200 ppm [1] | inhibition at 20 ppm [3] | pest or weed control at 200 ppm (Phakopsora pachyrhizi)

CCCCON(Cc1ccc(-c2noc(C(F)(F)F)n2)cc1)C(=O)C(N)=O [Compound 4.87, N′-butoxy-N′-[[4-[5-(trifluoromethyl)-1,2,4-oxadiazol-3-yl]phenyl]methyl] oxamide]
≥ 80%: pest or weed control at 200 ppm [1] | inhibition at 20 ppm [3] | pest or weed control at 200 ppm (Phakopsora pachyrhizi)
